Eleven compounds from patent publication US9399649B2, “Compounds for treating spinal muscular atrophy” (PTC Therapeutics Inc., priority 2012, dated 2016) can be followed below.

Data set [1] relates to full length SMN2 minigene mRNA containing SMN2 exon 7. Nature of the data set: SMN2 minigene mRNA splicing RT-qPCR assay in cultured cells. The format is cell-based, human. Conditions: Homo sapiens, HEK293-H; HEK293H cells stably transfected with SMN2-A minigene, 24 hours, 7-point concentration curve; concentration giving 1.5-fold full length SMN2 mRNA vs vehicle; read-out: EC1.5x for production of full length SMN2 mRNA. How it is done:
The reverse transcription-quantitative PCR-based (RT-qPCR) assay is used to quantify the level of the full length SMN2 minigene mRNA containing SMN2 exon 7 in a HEK293H cell line stably transfected with said minigene and treated with a test compound.
HEK293H cells stably transfected with the SMN2-A minigene construct described above (10,000 cells/well) are seeded in 200 ut, of cell culture medium (DMEM plus 10% FBS, with 200 μg/mL hygromycin) in 96-well flat-bottom plates and the plate is immediately swirled to ensure proper dispersal of cells, forming an even monolayer of cells. Cells are allowed to attach for at least 4-6 hours. Test compounds are serially diluted 3.16-fold in 100% DMSO to generate a 7-point concentration curve. A solution of test compound (1 μL, 200× in DMSO) is added to each cell-containing well and the plate is incubated for 24 hours in a cell culture incubator (37° C., 5% CO2, 100% relative humidity). 2 replicates are prepared for each test compound concentration. The cells are then lysed in Cells-To-Ct lysis buffer and the lysate is stored at −80° C.
Primer SMN Forward A (SEQ ID NO. 1) hybridizes to a nucleotide sequence in exon 7 (nucleotide 22 to nucleotide 40), primer SMN Reverse A (SEQ ID NO. 2) hybridizes to a nucleotide sequence in the coding sequence of Firefly luciferase, SMN Probe A (SEQ ID NO. 3) hybridizes to a nucleotide sequence in exon 7 (nucleotide 50 to nucleotide 54) and exon 8 (nucleotide 1 to nucleotide 21). The combination of these three oligonucleotides detects only SMN1 or SMN2 minigenes (RT-qPCR) and will not detect endogenous SMN1 or SMN2 genes.
The SMN forward and reverse primers are used at final concentrations of 0.4 μM. The SMN probe is used at a final concentration of 0.15 μM. The GAPDH primers are used at final concentrations of 0.2 μM and the probe at 0.15 μM.
The SMN2-minigene GAPDH mix (15 μL total volume) is prepared by combining 7.5 μL of 2×RT-PCR buffer, 0.4 μL of 25×RT-PCR enzyme mix, 0.75 μL of 20×GAPDH primer-probe mix, 4.0075 μL of water, 2 μL of 10-fold diluted cell lysate, 0.06 μL of 100 μM SMN forward primer, 0.06 μL of 100 μM SMN reverse primer, and 0.225 μL of 100 μM SMN probe.
PCR is carried out at the following temperatures for the indicated time: Step 1: 48° C. (15 min); Step 2: 95° C. (10 min); Step 3: 95° C. (15 sec); Step 4: 60° C. (1 min); then repeat Steps 3 and 4 for a total of 40 cycles.
Each reaction mixture contains both SMN2-A minigene and GAPDH primersprobe sets (multiplex design), allowing simultaneous measurement of the levels of two transcripts.
Two SMN spliced products are generated from the SMN2 minigene. The first spliced product containing exon 7, corresponding to full length SMN2 mRNA, is referred to herein using the term “SMN2 minigene FL.” The second spliced product lacking exon 7 is referred to herein using the term “SMN2 minigene Δ7.”
The increase of SMN2 minigene FL mRNA relative to that in cells treated with vehicle control is determined from real-time PCR data using a modified ΔΔCt method (as described in Livak and Schmittgen, Methods, 2001, 25:402-8). The amplification efficiency (E) is calculated from the slope of the amplification curve for SMN2 minigene FL and GAPDH individually. The abundances of SMN2 minigene FL and GAPDH are then calculated as (1+E)^−Ct, where Ct is the threshold value for each amplicon. The abundance of SMN2 minigene FL is normalized to GAPDH abundance. The normalized SMN2 minigene FL abundance from test compound-treated samples is then divided by normalized SMN2 minigene FL abundance from vehicle-treated cells to determine the level of SMN2 FL mRNA relative to vehicle control.
For orientation: Quantitative PCR measures a nucleic acid by following its amplification.

A further data set concerns Smn protein. Briefly: Smn protein assay in cultured cells (SMN HTRF). Conditions: SMA patient fibroblast cells (GM03813), 48 hours; for EC1.5x for Smn protein expression: 7-point concentration curve, concentration producing 1.5 times Smn protein vs DMSO vehicle; for maximum fold (Fold) increase of Smn protein: 7-point concentration data, relative to vehicle control. The format is cell-based, human. On the procedure:
The SMN HTRF (homogeneous time resolved fluorescence) assay is used to quantify the level of Smn protein in SMA patient fibroblast cells treated with test compounds.
Cells are thawed and cultured in DMEM-10% FBS for 72 hours. Cells are trypsinized, counted and re-suspended to a concentration of 25,000 cells/mL in DMEM-10% FBS. The cell suspensions are plated at 5,000 cells per well in a 96 well microtiter plate and incubated for 3 to 5 hours. […] Test compounds are serially diluted 3.16-fold in 100% DMSO to generate a 7-point concentration curve. 1 μL of test compound solution is transferred to cell-containing wells and cells are incubated for 48 hours in a cell culture incubator (37° C., 5% CO2, 100% relative humidity). Triplicate samples are set up for each test compound concentration. After 48 hours, the supernatant is removed from the wells and 25 μL of the RIPA lysis buffer, containing protease inhibitors, is added to the wells and incubated with shaking at room temperature for 1 hour. 25 μL of the diluent is added and then 35 μL of the resulting lysate is transferred to a 384-well plate, where each well contains 5 μL of the antibody solution (1:100 dilution of anti-SMN d2 and anti-SMN kryptate in SMN reconstitution buffer). The plate is centrifuged for 1 minute to bring the solution to the bottom of the wells, then incubated overnight at room temperature. Fluorescence for each well of the plate at 665 nm and 620 nm is measured on an EnVision multilabel plate reader (Perkin-Elmer).
The normalized fluorescence signal is calculated for each sample, Blank and vehicle control well by dividing the signal at 665 nm by the signal at 620 nm. Normalizing the signal accounts for possible fluorescence quenching due to the matrix effect of the lysate. The ΔF value (a measurement of Smn protein abundance as a percent value) for each sample well is calculated by subtracting the normalized average fluorescence for the Blank control wells from the normalized fluorescence for each sample well, then dividing this difference by the normalized average fluorescence for the Blank control wells and multiplying the resulting value by 100. The ΔF value for each sample well represents the Smn protein abundance from test compound-treated samples. The ΔF value for each sample well is divided by the ΔF value for the vehicle control wells to calculate the fold increase in Smn protein abundance relative to the vehicle control.
(In general: TR-FRET usually uses a lanthanide donor and a delayed reading to cut background.)

For orientation: melting point means the temperature of the solid-liquid transition. `Cc1cn2cc(-c3cc4ccc(N5CCN(C(C)C)[C@@H](C)C5)cc4c(=O)o3)nc2c(C)n1` [Cpd 138, 3-(6,8-dimethylimidazo[1,2-a]pyrazin-2-yl)-7-[(3S)-3-methyl-4-(propan-2-yl)piperazin-1-yl]-1H-isochromen-1-one]: the melting point fell in the range of 266 to 271 °C. Besides, in data set [1], the EC (1.5-fold) was 0.1 to 0.3 µM. Moreover, in the data set with Smn protein, the “EC1.5x for Smn protein expression” value is “*** (an EC1.5× between >0.3 nM and ≦1 nM is indicated by three stars (***))”; the “maximum fold (Fold) increase of Smn protein” value (from here on “maximum fold (Fold) increase”) is “**** (a fold increase between >1.5 and ≦1.65 is indicated by four stars (****))”.

Take `COc1cccc(-c2cc3ccc(N4CCNCC4)cc3c(=O)o2)c1` [Cpd 18, 3-(3-methoxyphenyl)-7-(piperazin-1-yl)-1H-isochromen-1-one]: the melting point was 140 to 142 °C. Further, the EC (1.5-fold) in data set [1] was 0.3 to 1 µM. Moreover, in the data set on Smn protein, the “maximum fold (Fold) increase” value is “* (A maximum fold increase of ≦1.2 is indicated by one star (*))”.

Consider `C[C@H]1CN(c2ccc3cc(-c4nc5ccccc5s4)oc(=O)c3c2)CCN1` [Cpd 36, 3-(1,3-benzothiazol-2-yl)-7-[(3S)-3-methylpiperazin-1-yl]-1H-isochromen-1-one], for which the melting point was 236 to 238 °C. For the same compound, the EC (1.5-fold) in data set [1] lay in the range of 3 to 30 µM. Besides, in the data set with Smn protein, the “maximum fold (Fold) increase” value is reported as “* (A maximum fold increase of ≦1.2 is indicated by one star (*))”.

The compound `C[C@H]1CN(c2ccc3cc(-c4ccc5c(c4)OCCO5)oc(=O)c3c2)CCN1` [Cpd 35, 3-(2,3-dihydro-1,4-benzodioxin-6-yl)-7-[(3S)-3-methylpiperazin-1-yl]-1H-isochromen-1-one] registered a melting point of 175 to 177 °C. The EC (1.5-fold) in data set [1] was in the range of 0.3 to 1 µM. Also, in the data set with Smn protein, the “maximum fold (Fold) increase” value is on record as “* (A maximum fold increase of ≦1.2 is indicated by one star (*))”.

Regarding `Cc1cn2cc(-c3cc4ccc(C5=CCN(C6CC6)CC5)cc4c(=O)o3)nc2c(C)n1` [Cpd 93, 7-(1-cyclopropyl-1,2,3,6-tetrahydropyridin-4-yl)-3-(6,8-dimethylimidazo[1,2-a]pyrazin-2-yl)-1H-isochromen-1-one], the melting point is 230 to 232 °C. In addition, the EC (1.5-fold) in data set [1] is at most 0.1 µM. Moreover, in the data set on Smn protein, the “EC1.5x for Smn protein expression” value is “**** (an EC1.5×≦0.3 nM is indicated by four stars (****))” and the “maximum fold (Fold) increase” value is on record as “***** (a fold increase >1.65 is indicated by five stars (*****))”.

Consider `Cc1cn2cc(-c3cc4ccc(C5CCN(C(C)C)CC5)cc4c(=O)o3)nc2c(C)n1` [Cpd 117, 3-(6,8-dimethylimidazo[1,2-a]pyrazin-2-yl)-7-[1-(propan-2-yl)piperidin-4-yl]-1H-isochromen-1-one], for which the melting point fell in the range of 227 to 229 °C. Also, in data set [1], the EC (1.5-fold) is at most 0.1 µM. In addition, in the data set with Smn protein, the “EC1.5x for Smn protein expression” value was “*** (an EC1.5× between >0.3 nM and ≦1 nM is indicated by three stars (***))”; the “maximum fold (Fold) increase” value is listed as “***** (a fold increase >1.65 is indicated by five stars (*****))”.

`Cc1cn2cc(-c3cc4ccc(N5CCN(C6COC6)[C@@H](C)C5)cc4c(=O)o3)nc2c(C)n1` [Cpd 139, 3-(6,8-dimethylimidazo[1,2-a]pyrazin-2-yl)-7-[(3S)-3-methyl-4-(oxetan-3-yl)piperazin-1-yl]-1H-isochromen-1-one] showed a melting point of 251 to 256 °C. Further, the EC (1.5-fold) in data set [1] lay in the range of 0.3 to 1 µM. Also, in the data set with Smn protein, the “EC1.5x for Smn protein expression” value is “** (an EC1.5× between >1 μM, and ≦3 nM is indicated by two stars (**))”; the “maximum fold (Fold) increase” value was “***** (a fold increase >1.65 is indicated by five stars (*****))”.

In turn, `Cc1cn2cc(-c3cc4ccc(N5CCN(C)[C@@H](C)C5)cc4c(=O)o3)nc2c(C)n1` [Cpd 66, 3-(6,8-dimethylimidazo[1,2-a]pyrazin-2-yl)-7-[(3S)-3,4-dimethylpiperazin-1-yl]-1H-isochromen-1-one] had a melting point of 255 to 256 °C. Further, the EC (1.5-fold) in data set [1] was at most 0.1 µM. In the data set with Smn protein, the “EC1.5x for Smn protein expression” value was “**** (an EC1.5×≦0.3 nM is indicated by four stars (****))” and the “maximum fold (Fold) increase” value was “***** (a fold increase >1.65 is indicated by five stars (*****))”.

Take `CCN1CCN(c2ccc3cc(-c4cn5cc(C)nc(C)c5n4)oc(=O)c3c2)C[C@@H]1C` [Cpd 135, 3-(6,8-dimethylimidazo[1,2-a]pyrazin-2-yl)-7-[(3S)-4-ethyl-3-methylpiperazin-1-yl]-1H-isochromen-1-one]: the melting point lay within 238 to 243 °C. Moreover, the EC (1.5-fold) in data set [1] is at most 0.1 µM. In the data set with Smn protein, the “EC1.5x for Smn protein expression” value is “**** (an EC1.5×≦0.3 nM is indicated by four stars (****))” and the “maximum fold (Fold) increase” value was “***** (a fold increase >1.65 is indicated by five stars (*****))”.

In the case of `O=c1oc(-c2ccc3c(c2)OCO3)cc2ccc(N3CCNCC3)cc12` [Cpd 12, 3-(1,3-benzodioxol-5-yl)-7-(piperazin-1-yl)-1H-isochromen-1-one], the melting point was in the range of 267 to 269 °C. In addition, in data set [1], the EC (1.5-fold) was in the range of 0.3 to 1 µM. Moreover, in the data set on Smn protein, the “maximum fold (Fold) increase” value is “** (a fold increase between >1.2 and ≦1.35 is indicated by two stars (**))”.

`CN1CCN(c2ccc3cc(-c4ccc5c(c4)OCO5)oc(=O)c3c2)CC1` [Cpd 15, 3-(1,3-benzodioxol-5-yl)-7-(4-methylpiperazin-1-yl)-1H-isochromen-1-one] came in with a melting point of 297 to 299 °C. The EC (1.5-fold) in data set [1] was in the range of 3 to 30 µM. In addition, the “maximum fold (Fold) increase” value with Smn protein is “* (A maximum fold increase of ≦1.2 is indicated by one star (*))”.
